Assay results as given in US11013752B2, “Combination therapies for inner ear sensory hair cell regeneration/replacement” (Hough Ear Institute, priority 2016, dated 2021).
Entries after “also recorded” stand apart in the source; their conditions may differ.

Legend:
[1] = test system: Madin-Darby Canine Kidney (MDCK) cells; type: cell-based
Protocol: FIG. 19 depicts representative images of GSK3I-mediated proliferation in serum-starved MDCK cells. Cells were initially cultured in the presence of 10% fetal bovine serum (FBS) and then switched to serum-free media for 24 hours prior to the addition of 0.2% serum-containing media which included GSK3Is at the indicated concentrations in the presence of 10 μM EdU. Cells were cultured an additional 48 h prior to fixation and visualization of EdU-positive nuclei (green) via conjugation of AlexaFluor488 azide in a copper-catalyzed cycloaddition (“Click” reaction, Click-iT Edu, Life Technologies). Total nuclei were stained with DAPI (blue). NC, normal control or untreated cells cultured in the presence of 10% FBS throughout the experimental time course.
EdU-positive nuclei from imaged fields of MDCK cells cultured as described in FIG. 13 were quantified using ImageJ software (NIH) and graphed as the averaged percentile of the number of EdU-positive cells relative to the total number of DAPI-stained nuclei in each field. A minimum of four fields of cells for each experimental condition were included in this analysis. (* and ***, p<0.05 and 0.001, respectively, for statistically significant increases in EdU-positive nuclei relative to untreated, serum-starved controls).
Tideglusib was procured from Cayman Chemical Company and performed a dose curve analysis under serum starvation conditions with Madin-Darby Canine Kidney (MDCK) cells in parallel with a series of commercially-available GSK3 inhibitors to ascertain its relative proliferative potential under mitotically-suppressed conditions in this well-established mammalian epithelial cell line. In these experiments, MDCK cells were cultured under serum starvation conditions for 24 hours prior to culturing cells for 48 hours in the presence of GSK3 inhibitors and 10 μM EdU (5-ethynyl-2′-deoxyuridine), a nucleoside analog that permanently marks cells that have undergone DNA replication.

[2] = test system: neonatal murine utricular maculae; assay: BIO, siHes1 and GSI in neomycin-damaged utricle cultures; type: cell-based, CD1 mice; conditions: NEO-ablated utricles; BIO 2.5 μM, 20 nM Hes1 siRNA, GSI 5 μM
Protocol: To assess whether BIO can enhance the therapeutic efficacy of Hes1 siRNA in regenerating HCs following a toxic insult, neonatal murine utricular tissues were exposed to neomycin (NEO) and then either left untreated or were treated with one or both of the therapeutic agents. After a total of 8 days in vitro, tissues were fixed and labeled with the HC marker, Myo7a. ###, p<0.001 difference in Myo7a-postive cells relative to untreated controls. *, **, and ***, p<0.05, 0.01, and 0.001, respectively, with respect to significant differences in the number of Myo7a-postive cells between treatment groups.
Organotypic cultures from murine utricular maculae (balance organ sensory epithelia) were cultured and then harvested on postnatal day 3 (P3) from CD1 mice. These explants were then cultured in appropriate media for twenty-four hours. […] All cultures were then maintained in media without either of the test agents for a final 24 h, after which tissues were fixed in 4% paraformaldehyde solution and subjected to immunolabeling with an antibody against the hair cell marker, myosin VIIa (Myo7a), and an appropriate secondary antibody for subsequent immunofluorescence-mediated quantification of HCs along the length of the cochlear spiral (FIGS. 14-17).

[3] = test system: Hes1 transcript in IMO-2B1 murine inner ear cell line; assay: Hes1 knockdown efficiency by RT-qPCR, transfected siHES1 molecules; type: cell-based; conditions: IMO-2B1, RNAiMAX, 48 hours after transfection
Excerpt: FIG. 27 depicts reverse transcription-quantitative polymerase chain reaction (RT-qPCR) results from comparative dose curve analyses of Hes1 knockdown efficiency relative to mock-treated controls in a murine inner ear cell line (IMO-2B1), using two distinct siHES1 molecules with conserved target sites among mammalian Hes1 transcripts. SiRNA molecules were transfected into sub-confluent wells of IMO-2B1, using a commercial transfection agent (RNAiMAX, ThermoFisher Sci.). Forty-eight hours after transfection, total RNA was isolated and subjected to RT-qPCR analyses, using primers against Hes1 and the house keeping gene GAPDH. Relative Hes1 levels were determined by the 2^−ΔΔCT method (See Livak and Schmittgen (2001) Methods 25(4):402-408, incorporated by reference in its entirety). The apparent potency of molecule #7 for depleting Hes1 transcript levels was considerably greater than that of molecule #1, as optimal knockdown using molecule #7 was observed using as little as 2 nM siRNA (relative to ˜20 nM required for molecule #1).

[4] = test system: organotypic cultures of murine OCs; assay: Hair cell counts in neomycin-damaged OC cultures treated with TIDE and/or siHES1 lipofection complexes; type: cell-based; conditions: for Hair Cell Counts ± SEM, Mid-apical turn / Hair Cell Counts ± SEM, Middle Turn: neomycin 0.7 mM 24 h, 10.0 μM TIDE, siHES1 20 nM lipofection complexes (FIG. 22)
Protocol: (§1) FIG. 22 depicts hair cells (Myo7a+ cells) quantified from the mid-apical and middle regions of organotypic cultures of murine OCs following a 24 h exposure to neomycin (0.7 mM) and subsequent recovery in the presence or absence of the GSK3 inhibitor Tideglusib (TIDE) and/or siHES1 (20 nM) lipofection complexes (JetSI, Polyplus).
as §1, with “23” for “22”
as §1, with “25” for “22”, “mid-apical, middle,” for “mid-apical”, “mid-basal” for “middle”, “Polyplus). One set of NEO-ablated OCs were treated with TIDE then siHes1 in the presence of 2 ng/mL FGF-2 as a media supplement with the aim of potentially enhancing the effects of Tideglusib.” for “Polyplus).”
The protocol described above for BIO is used, substituting the addition of BIO for 10.0 μM Tideglusib (TIDE). A third treatment group is added, where Tideglusib is included in the culture medium after siHes1, parallel to the other protocols: on P4 or P5 (depending on whether there was an ototoxic insult to simulate hair cell loss) the control media is added with or without the inclusion of 10.0 μM TIDE; on P7 siHes1 is added in the presence of absence of TIDE; and on P9 10.0 μM Tideglusib is included in the media for a subset of cultures. On P11, all media is replaced with fresh media without any therapeutics. On P12, the tissues are fixed for immunolabeling. An example of comparative analyses from this treatment paradigm, following an exposure to the ototoxic aminoglycoside, NEO, is depicted in FIG. 22.
This experimental paradigm was again repeated adding additional treatment groups where FGF-2 was optionally included in the culture medium at 2 ng/mL at P5, P7, and P9 for a subset of cultures.

[5] = test system: sensory epithelial region of postnatal day 3 OCs; assay: EdU-labeling of mitotically-active cells in postnatal organ of Corti; type: cell-based; conditions: 0.5 or 2.0 μM, 72 hours, vs vehicle
Protocol: FIG. 21 depicts EdU-labeling of mitotically-active cells in the postnatal organ of Corti in response to Tideglusib treatment. Postnatal day 3 OCs were harvested and cultured in vitro for 24 hours prior to the addition of culture media containing 10 μM EdU in the presence of either vehicle alone (DMSO) or tideglusib (TIDE) at a final concentration of 0.5 or 2.0 μM. Organotypic cultures were cultured continuously in the presence of these agents for 72 hours prior to fixation and visualization of EdU-positive nuclei as described above. Images of the middle turn of the OC from each group are shown. Brackets denote the sensory epithelial region in each image.
A targeted pilot experiment was conducted in which postnatal OCs were cultured continuously for 72 hours in the presence of EdU and either tideglusib or vehicle alone to assess whether the GSK3 inhibitor was capable of inducing a mitotic response in the sensory epithelial region of the OC. […] Follow-up analyses will indicate whether this tideglusib-induced proliferative response in the OC involves supporting cells, hair cells, or both, using cell type-specific markers.

[6] = test system: postnatal (P3) murine (CD1) OC explants; assay: siHes1 NPs with Tideglusib in neomycin-ablated OC explants; type: cell-based
Protocol: Postnatal (P3) murine (CD1) OC explants were exposed to the ototoxic aminoglycoside, neomycin, for 24 h and then treated with 60 nM siHes1 NP alone; the GSK3 inhibitor, Tideglusib (TIDE), alone (2 μM); or a combination of 60 nM siHes1 NP with escalating doses of Tideglusib (0.5, 2, or 10 μM) for 6d prior to fixation and immunolabeling against the HC-specific marker, Myo7a. Middle turn as fixed reference among images shown.
NEO-ablated OCs were treated with a suboptimal (60 nM) dose of siHes1 NPs either alone or in combination with escalating doses of TIDE. […] The sustained release profile of siHes1 NPs mimics staged application of the two therapeutics.
Applicants hypothesized that the delayed, yet sustained, release of siHes1 from biocompatible PLGA NPs would recapitulate the therapeutic attributes of staged application of a GSK3 inhibitor and siRNA against Hes1 when the two drugs were co-administered. To test this hypothesis, a sub-maximal efficacious dose (60 nM) of siHes1 NPs with escalating doses (0.5, 2, and 10 μM) of the GSK3I, tideglusib, in order to have sufficient experimental margin were used to assess a regenerative dose-response profile in organotypic cultures of neomycin (NEO)—exposed organs of Corti (OCs). Using this paradigm, NEO-ablated OCs were subsequently cultured with siHes1 NPs alone or in combination with Tideglusib over the course of six days prior to fixation and immunohistological analyses.

[Cl-].[Li+] [LiC1, lithium chloride] was tested, and the EdU-positive cells ([1]; 10 mM, relative to identical dose of sodium chloride) was “increased numbers of EdU-positive cells”.

C[C@H](NC(=O)Cc1cc(F)cc(F)c1)C(=O)N[C@@H]1C(=O)N(C)c2ccccc2-c2ccccc21 [GSI, deshydroxy LY 411575] was tested, and the “HC numbers (Myo7a-positive cells) in striolar/extrastriolar region” value [2] was “increased HC numbers within the striolar region”.

In the case of “Molecule 1: siRNA, murine Hes1 mRNA nt 239-257, SEQ ID NO: 1 and 2 (chain 1 CAGCUGAUAUAAUGGAGAATT; chain 2 UUCUCCAUUAUAUCAGCUGTT; chemistry not given here)”, the “siRNA concentration for optimal Hes1 knockdown” value [3] is reported as ~20 nM.

O=C1Nc2cc(Br)ccc2/C1=C1/Nc2ccccc2/C1=N\O [BIO, 6-bromoindirubin-3′-oxime] was tested, and the “proliferative response (EdU-positive nuclei)” value ([1]; serum-starved MDCK, 48 h, across dose range tested (up to 10 μM)) was “reduced numbers of EdU-positive nuclie” and the “HC numbers (Myo7a-positive cells) in striolar/extrastriolar region” value [2] was “increased HC numbers within the striolar region”.

For “Molecule 7: siRNA, human Hes1 mRNA nt 673-691, SEQ ID NO: 13 and 14 (chain 1 ACUGCAUGACCCAGAUCAA; chain 2 UUGAUCUGGGUCAUGCAGU; listed as RNA, chemistry not given here)”, the “siRNA concentration for optimal Hes1 knockdown” value [3] was 2 nM.

Cc1c[nH]c(-c2cnc(NCCNc3ccc(C#N)cn3)nc2-c2ccc(Cl)cc2Cl)n1 [CHIR-99021] was tested, and the “number of EdU-positive nuclei” value ([1]; 10 μM, relative to untreated serum-starved cells) was “statistically insignificant relative to untreated, serum-starved cells” and the “mitotically-active cells (EdU-positive nuclei)” value ([1]; low-dose (0.1 μM), serum starvation) was “robust, statistically-significant increase in mitotically-active cells”.

For “FGF-2: basic fibroblast growth factor used as media supplement”, the “effect of FGF-2 media supplement on HC regeneration” value ([4]; 2 ng/mL FGF-2, NEO-ablated OCs, with or without TIDE then siHes1) was “did not elicit a therapeutic response on its own; also recorded: potentiated the therapeutic effects of TIDE/siHES1 treatment through the mid-basal turn of the OC”.

With O=c1sn(-c2cccc3ccccc23)c(=O)n1Cc1ccccc1 [TIDE, tideglusib] the “Hair Cell Counts ± SEM, Mid-apical turn” value [4] was 9.1 ± 1.6, the “Hair Cell Counts ± SEM, Middle Turn” value [4] was 2.8 ± 0.8 and the “mitotic response (EdU-positive nuclei) in sensory epithelial region” value [5] was “greater incidence of EdU-positive nuclei; also recorded: markedly greater mitotic response in the sensory epithelial region”. For the same compound, the “siHes1 NP regenerative efficacy, middle turn” value ([6]; 10 μM Tideglusib with 60 nM siHes1 NPs, relative to siHes1 NPs alone) was “statistically-significant increases”, the “siHes1 NP regenerative efficacy, basal turn” value ([6]; 2 and 10 μM Tideglusib with 60 nM siHes1 NPs, relative to siHes1 NPs alone) was “statistically-significant increases” and the “HC numbers / densities with combined treatment” value ([6]; NEO-ablated OCs, 60 nM siHes1 NP plus Tideglusib 0.5, 2 or 10 μM, 6 d) was “concentration-dependent enhancement of siHes1 NP-induced hair cell (HC) regeneration”. For the same compound, the “regenerative response (HC numbers)” value ([6]; Tideglusib alone (2 μM), NEO-ablated OCs) was “did not induce a statistically significant regenerative response” and the “siHes1 NP regenerative efficacy, mid-apical region” value ([6]; Tideglusib with 60 nM siHes1 NPs vs siHes1 NPs alone) was “no statistically-significant differences between the treatment groups”.

With NC[C@@H]1O[C@H](O[C@H]2[C@@H](O)[C@H](O[C@@H]3[C@@H](O)[C@H](N)C[C@H](N)[C@H]3O[C@H]3O[C@H](CN)[C@@H](O)[C@H](O)[C@H]3N)O[C@@H]2CO)[C@H](N)[C@@H](O)[C@@H]1O [NEO alone, neomycin] the “Hair Cell Counts ± SEM, Mid-apical turn” value [4] was 5.1 ± 1.1 and the “Hair Cell Counts ± SEM, Middle Turn” value [4] was 2.5 ± 0.8.
